According to publication PMC10578927, “An unconventional gatekeeper mutation sensitizes inositol hexakisphosphate kinases to an allosteric inhibitor” (eLife, 2023):

Legend:
IP6K1^L210V = molecular target: T1, IP6K1^L210V (Homo sapiens, UniProt Q92551, L210V); assay: NMR activity assay, [13C6]-InsP6 to 5PP-InsP5, with ATP-regenerating system; type: biochemical
T1 construct: made in house; host or cells: E. coli Arctic Express
Text: (§1) The gatekeeper mutants L210G and L210A of IP6K1 were generated by site-directed mutagenesis and the enzymes were recombinantly expressed, analogous to the WT kinase, as MBP-fusion proteins. To assess their catalytic activity, we used an NMR assay that harnesses fully ^13C-labeled InsP6 as a substrate and enables direct product readout of 5PP-InsP5 (Figure 2b and Figure 2—figure supplement 1; [Puschmann et al., 2019]; [Harmel et al., 2019]). […] Likewise, IP6K2 suffered a drastic decline in substrate turnover upon gatekeeper mutation to glycine (Figure 2—figure supplement 2).
(§2) The NMR assay for IP6K activity was performed similarly as described before ([Harmel et al., 2019]) with slight alterations. Enzyme assays were performed in D2O in a total volume of 150 µl containing 20 mM 4-(2-hydroxyethyl)-1-piperazineethanesulfonic acid (HEPES) pH* 6.8, 50 mM NaCl, 6 mM MgCl2, 1 mM ATP, 0.2 mg/ml BSA, 1 mM DTT, 5 mM creatine phosphate and 1 U/ml creatine kinase (ATP-regenerating system) and 50 nM kinase if not otherwise stated. HEPES, NaCl, and BSA were prepared as buffer A and DTT and creatine phosphate as buffer B in D2O and were adjusted to pH* 6.8, respectively. If applicable, inhibitor was added as a DMSO-d6 stock in a twofold dilution series at a final DMSO concentration of 1% if not otherwise mentioned. Otherwise, DMSO-d6 was added to the same percentage. The samples were equilibrated at 37°C for 3 min and the reaction initiated by adding 100 µM [^13C6]-InsP6.

IP6K1^wt = molecular target: T2, IP6K1^wt (Homo sapiens, UniProt Q92551); assay: as above; type: biochemical; details: 1 mM ATP, ATP-regenerating system
T2 construct: made in house; host or cells: E. coli Arctic Express
T2 sequence (Q92551 whole entry): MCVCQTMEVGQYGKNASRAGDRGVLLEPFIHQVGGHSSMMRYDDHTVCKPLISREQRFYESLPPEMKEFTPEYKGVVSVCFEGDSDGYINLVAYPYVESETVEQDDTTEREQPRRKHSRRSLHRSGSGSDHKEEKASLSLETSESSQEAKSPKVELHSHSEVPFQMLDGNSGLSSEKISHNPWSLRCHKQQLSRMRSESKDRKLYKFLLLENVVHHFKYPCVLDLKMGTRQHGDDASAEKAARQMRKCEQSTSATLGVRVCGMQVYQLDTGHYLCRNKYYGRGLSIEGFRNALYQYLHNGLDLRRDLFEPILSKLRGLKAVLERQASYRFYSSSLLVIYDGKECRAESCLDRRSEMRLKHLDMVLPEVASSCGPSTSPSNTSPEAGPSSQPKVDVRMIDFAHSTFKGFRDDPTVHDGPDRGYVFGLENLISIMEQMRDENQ
Text: as §1, §2

HEK293 = assay: Cytotoxicity, cell survival after 72 hr incubation; type: cell-based; details: HEK293, 10 µM
Experimental: (§3) Supplementary file elife-88982-supp2.xlsx: Supplementary file 2. Cytotoxicity of selected hits indicated by cell survival after 72 hr incubation at 10 µM concentration. All compounds were measured in independent triplicates and errors represent standard deviation. Redox activity of selected compounds measured via a photometric surrogate assay. Reactions contained 50 mM HEPES pH 7.5, 50 mM NaCl, 200 mM DTT, and 20 µM resazurin, and were incubated for 1 hr at 37°C.

HepG2 = assay: Cytotoxicity, cell survival after 72 hr incubation; type: cell-based; details: HepG2, 10 µM
Experimental: as §3

HCT116 cells = assay: Reverse transcription qPCR of 45S pre-rRNA transcript levels; type: cell-based; details: HCT116 cells treated 5 hr, RT-qPCR, preliminary experiment
Experimental: Total RNA was extracted using the RNeasy kit from QIAGEN. cDNA was generated using Thermo Fisher Scientific SuperScript III Reverse Transcriptase and 2 µg RNA following the vendor’s protocol. […] The cDNA was diluted 10-fold before conducting qPCR using SYBR Green PCR Master Mix and a StepOnePlus RT PCR System. The difference in transcript levels was calculated using the ΔΔct method and technical triplicates.

IP6KA^wt = molecular target: T3, IP6KA^wt (Entamoeba histolytica, UniProt N9UNA8); assay: NMR activity assay for EhIP6KA constructs; type: biochemical
T3 sequence (N9UNA8 1-270): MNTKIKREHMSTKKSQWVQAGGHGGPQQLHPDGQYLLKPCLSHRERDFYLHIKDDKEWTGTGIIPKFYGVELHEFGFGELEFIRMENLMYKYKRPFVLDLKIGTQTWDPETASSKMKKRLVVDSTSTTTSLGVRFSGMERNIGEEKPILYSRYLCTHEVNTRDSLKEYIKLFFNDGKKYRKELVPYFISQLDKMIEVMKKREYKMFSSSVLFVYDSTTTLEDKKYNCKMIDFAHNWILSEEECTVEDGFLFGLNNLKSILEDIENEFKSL
Experimental: The NMR assay for EhIP6KA activity was performed similarly as described before ([Harmel et al., 2019]) with slight alterations. Enzyme assays were performed in D2O in a total volume of 150 µl containing 20 mM MES pH* 6.4, 50 mM NaCl, 6 mM MgCl2, 1 mM ATP, 0.2 mg/ml BSA, 1 mM DTT, 5 mM creatine phosphate, and 1 U/ml creatine kinase (ATP-regenerating system) and 50 nM kinase if not otherwise stated. MES, NaCl, and BSA were prepared as buffer A and DTT and creatine phosphate as buffer B in D2O and were adjusted to pH* 6.4, respectively. If applicable, inhibitor was added as a DMSO-d6 stock in a twofold dilution series at a final DMSO concentration of 1% if not otherwise mentioned. Otherwise, DMSO-d6 was added to the same percentage. The samples were equilibrated at 37°C for 3 min and the reaction initiated by adding 100 µM [^13C6]-InsP6. The reaction was quenched with 400 µl quenching solution (20 mM EDTA pD 6.0, 68.75 mM NaCl) and transferred into an NMR tube before being measured on a Bruker […] 600 PLUS with an NMR pulse program developed previously ([Harmel et al., 2019]).

IP6K2^L206V = molecular target: T4, IP6K2^L206V (Homo sapiens, UniProt Q9UHH9, L206V); assay: NMR activity assay, [13C6]-InsP6 to 5PP-InsP5; type: biochemical
T4 construct: made in house; host or cells: E. coli Arctic Express
T4 sequence (Q9UHH9 1-426 L206V): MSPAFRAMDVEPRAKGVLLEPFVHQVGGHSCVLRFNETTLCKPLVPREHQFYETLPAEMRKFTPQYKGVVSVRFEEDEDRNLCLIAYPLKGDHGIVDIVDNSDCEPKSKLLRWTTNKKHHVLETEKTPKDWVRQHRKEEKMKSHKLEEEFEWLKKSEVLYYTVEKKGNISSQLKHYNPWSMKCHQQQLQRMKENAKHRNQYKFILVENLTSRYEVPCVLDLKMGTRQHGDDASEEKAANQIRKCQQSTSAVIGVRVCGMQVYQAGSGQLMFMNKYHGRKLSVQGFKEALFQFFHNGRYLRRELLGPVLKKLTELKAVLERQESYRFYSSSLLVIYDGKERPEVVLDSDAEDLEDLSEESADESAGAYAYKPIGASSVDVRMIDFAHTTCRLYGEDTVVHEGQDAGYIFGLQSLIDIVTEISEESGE
Experimental: as §2

T1 sequence (Q92551 whole entry L210V): as the sequence (Q92551 whole entry) above, with L210V counted along it

O=C(O)c1ccc2c(c1)C(=O)N(c1ccc(-c3nc4ccc(N5C(=O)c6ccc(C(=O)O)cc6C5=O)cc4[nH]3)cc1)C2=O [FMP-201300]
IC50 (IP6K1^L210V; 100 μM InsP6): 75 nM
IC50 (IP6K1^L210V; 500 μM InsP6): 87 nM
difference in IC50 values measured at 100 and 500 µM InsP6 (IP6K1^L210V; IP6K1^L210V): negligible
IC50 (IP6K1^L210V; NMR assay, 1 mM ATP, ATP-regenerating system): 114 nM
IC50 (IP6K1^wt): 810 nM
cytotoxic (HEK293): nor cytotoxic
Cell number (%) (HEK293; 72 hr incubation): 100.1 ± 4.1%
cytotoxic (HepG2): nor cytotoxic
Cell number (%) (HepG2; 72 hr incubation): 99.1 ± 2.8%
reduction of ribosomal RNA synthesis (45S pre-rRNA transcript levels) (HCT116 cells): able to recapitulate this recently reported phenotype
IC50 (IP6KA^wt): 5820 nM
IC50 (IP6K2^L206V; NMR assay): 186 nM
times more potent against IP6K2^L206V compared to IP6K2^wt (IP6K2^L206V; ratio of IC50 values): 11
